In patent US20060057228A1, “Weight loss composition” (Pure World Botanicals, Inc., priority 2004, published 2006):

Test system: undifferentiated 3T3-L1 cell
Test: Anti-adipogenesis assay on undifferentiated 3T3-L1 cell
Assay type: cell-based
Text: The major component of weight gain is the increase and accumulation of fat through adipogenesis process. Adipogenesis is characterized by increase of both fat cell number and fat cell size. The weight loss composition of the present invention, banaba extracts, and some active components which were isolated from banaba have shown strong activity through an inhibitory activity on adipocyte differentiation to block fat cell synthesis to achieve the effect on bodyweight control and body fat loss. The following is the list of the results of anti-adipogenesis assay (Table 4).

[1] = concentration level 0.002% (w/w)
[2] = concentration level 0.004% (w/w)
[3] = concentration level 0.05% (w/w)
[4] = concentration level 0.10% (w/w)

| Molecule | Percent of inhibitory [1] | Percent of inhibitory [2] | Percent of inhibitory [3] | Percent of inhibitory [4] |
| --- | --- | --- | --- | --- |
| COc1c(O)cc2c(=O)oc3c(O)c(O)cc4c(=O)oc1c2c34 [3-O-methylellegic acid] | 97% | 98% |  |  |
| O=C(O[C@@H]1COC(=O)c2cc(O)c(O)c(O)c2-c2c(cc(O)c(O)c2O)C(=O)O[C@H]1[C@@H]1OC(=O)c2cc(O)c(O)c(O)c2-c2c(O)c(O)c(O)c3c2C(=O)O[C@H]1[C@@H]3O)c1cc(O)c(O)c(O)c1 [Casuarinin] | 100% | 100% | 100% | 100% |
| Banasulin | 96% | 79% | 99% |  |
| Lagerstroemin | 100% | 100% | 100% | 100% |
